Test results taken from BindingDB's records for doi:10.1046/j.1471-4159.1996.67010058.x (Cns Research, 1996).
pKi: −log10 of the molar value. Several values for one entry are separate records, joined by “and”; a condition that tells them apart may be missing. Equal values may be shown once.

Experiments:
[1] = target: Metabotropic glutamate receptor 3 (Homo sapiens, UniProt Q14832)
[2] = target: Metabotropic glutamate receptor 2 (Homo sapiens, UniProt Q14416)
[3] = target: Metabotropic glutamate receptor 1 (Homo sapiens, UniProt Q13255)
Chain of Metabotropic glutamate receptor 1 (Q13255 whole entry): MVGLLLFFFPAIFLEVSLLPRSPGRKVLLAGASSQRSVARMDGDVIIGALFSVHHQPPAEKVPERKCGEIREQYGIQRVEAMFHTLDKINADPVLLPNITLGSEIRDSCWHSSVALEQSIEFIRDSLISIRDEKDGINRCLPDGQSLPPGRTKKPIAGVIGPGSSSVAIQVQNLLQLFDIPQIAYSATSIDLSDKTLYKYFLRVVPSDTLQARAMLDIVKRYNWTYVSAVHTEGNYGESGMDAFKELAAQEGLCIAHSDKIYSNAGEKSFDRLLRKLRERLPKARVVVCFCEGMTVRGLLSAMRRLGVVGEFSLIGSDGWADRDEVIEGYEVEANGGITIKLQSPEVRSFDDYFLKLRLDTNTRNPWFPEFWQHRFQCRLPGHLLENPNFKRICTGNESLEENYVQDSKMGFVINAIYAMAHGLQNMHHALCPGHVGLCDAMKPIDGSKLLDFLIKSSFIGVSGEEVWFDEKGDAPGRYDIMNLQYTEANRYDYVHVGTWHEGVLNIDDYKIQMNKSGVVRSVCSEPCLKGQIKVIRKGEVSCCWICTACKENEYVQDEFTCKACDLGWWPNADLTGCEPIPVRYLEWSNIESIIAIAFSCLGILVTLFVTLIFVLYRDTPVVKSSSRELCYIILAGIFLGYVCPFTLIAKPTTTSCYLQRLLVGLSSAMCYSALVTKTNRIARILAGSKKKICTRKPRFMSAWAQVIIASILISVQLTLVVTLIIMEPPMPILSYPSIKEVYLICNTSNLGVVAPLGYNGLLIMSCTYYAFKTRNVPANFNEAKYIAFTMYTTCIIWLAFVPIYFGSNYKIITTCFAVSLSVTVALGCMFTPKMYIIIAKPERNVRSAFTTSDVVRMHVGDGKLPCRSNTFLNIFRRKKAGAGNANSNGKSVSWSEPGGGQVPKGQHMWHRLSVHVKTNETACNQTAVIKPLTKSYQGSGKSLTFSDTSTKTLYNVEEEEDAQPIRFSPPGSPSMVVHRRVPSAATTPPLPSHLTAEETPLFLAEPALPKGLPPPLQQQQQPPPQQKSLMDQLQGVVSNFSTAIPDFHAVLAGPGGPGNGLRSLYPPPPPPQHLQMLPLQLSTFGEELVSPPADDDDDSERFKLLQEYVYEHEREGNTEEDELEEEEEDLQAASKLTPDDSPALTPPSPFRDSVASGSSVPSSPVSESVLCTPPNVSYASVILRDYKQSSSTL

Chain of Metabotropic glutamate receptor 3 (Q14832 whole entry): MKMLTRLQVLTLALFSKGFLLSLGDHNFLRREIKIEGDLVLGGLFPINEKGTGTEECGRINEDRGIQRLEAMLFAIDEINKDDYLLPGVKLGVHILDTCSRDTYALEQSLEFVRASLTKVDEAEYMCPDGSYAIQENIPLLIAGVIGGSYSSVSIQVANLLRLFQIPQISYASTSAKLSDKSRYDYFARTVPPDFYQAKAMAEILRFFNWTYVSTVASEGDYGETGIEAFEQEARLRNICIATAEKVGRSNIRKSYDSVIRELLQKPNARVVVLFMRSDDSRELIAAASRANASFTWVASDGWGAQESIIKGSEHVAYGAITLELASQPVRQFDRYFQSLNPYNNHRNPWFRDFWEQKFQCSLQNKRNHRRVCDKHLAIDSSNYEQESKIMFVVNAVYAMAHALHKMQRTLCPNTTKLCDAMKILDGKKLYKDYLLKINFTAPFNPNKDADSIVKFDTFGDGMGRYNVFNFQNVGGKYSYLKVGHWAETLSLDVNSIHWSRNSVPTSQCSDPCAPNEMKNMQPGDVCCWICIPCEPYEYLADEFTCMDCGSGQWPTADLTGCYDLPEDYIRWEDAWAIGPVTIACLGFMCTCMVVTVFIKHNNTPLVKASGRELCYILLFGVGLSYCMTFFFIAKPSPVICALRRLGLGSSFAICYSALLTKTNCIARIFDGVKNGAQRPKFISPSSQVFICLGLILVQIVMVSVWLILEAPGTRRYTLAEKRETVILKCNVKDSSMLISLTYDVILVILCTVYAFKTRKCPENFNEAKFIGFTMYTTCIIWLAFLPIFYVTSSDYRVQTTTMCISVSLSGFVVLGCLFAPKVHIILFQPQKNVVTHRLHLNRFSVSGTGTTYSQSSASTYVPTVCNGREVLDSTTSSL
Chain of Metabotropic glutamate receptor 2 (Q14416 whole entry): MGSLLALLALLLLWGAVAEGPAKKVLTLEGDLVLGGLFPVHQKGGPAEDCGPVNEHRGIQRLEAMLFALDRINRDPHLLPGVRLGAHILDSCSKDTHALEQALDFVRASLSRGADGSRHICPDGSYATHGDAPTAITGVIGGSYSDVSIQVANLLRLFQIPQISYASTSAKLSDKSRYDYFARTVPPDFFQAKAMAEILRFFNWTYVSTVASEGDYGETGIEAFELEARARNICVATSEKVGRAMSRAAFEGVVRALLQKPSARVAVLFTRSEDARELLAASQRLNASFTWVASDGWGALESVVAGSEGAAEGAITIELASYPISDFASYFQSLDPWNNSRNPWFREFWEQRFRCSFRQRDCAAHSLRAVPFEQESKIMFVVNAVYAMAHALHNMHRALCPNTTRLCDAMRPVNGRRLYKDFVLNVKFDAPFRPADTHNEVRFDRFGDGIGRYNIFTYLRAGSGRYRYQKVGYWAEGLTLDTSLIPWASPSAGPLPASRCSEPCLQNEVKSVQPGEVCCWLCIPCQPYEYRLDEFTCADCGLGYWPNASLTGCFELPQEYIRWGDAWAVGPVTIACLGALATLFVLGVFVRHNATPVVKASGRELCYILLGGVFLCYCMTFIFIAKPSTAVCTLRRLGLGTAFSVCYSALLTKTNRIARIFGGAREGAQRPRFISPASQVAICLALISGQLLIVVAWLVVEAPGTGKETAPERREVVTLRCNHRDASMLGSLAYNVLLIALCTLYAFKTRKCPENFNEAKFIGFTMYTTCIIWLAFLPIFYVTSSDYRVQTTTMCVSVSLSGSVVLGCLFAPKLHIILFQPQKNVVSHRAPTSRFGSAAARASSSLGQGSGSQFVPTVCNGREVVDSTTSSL

Row | Structure (SMILES) | pKi [1] | pKi [2] | pKi [3]
1 | N[C@@]1(C(=O)O)CC[C@H](C(=O)O)C1 [1S, 3R-ACPD] | < 5.00 and 5.27 | < 5.00 | 
2 | N[C@@H](Cn1oc(=O)[nH]c1=O)C(=O)O [2-amino-3-(3,5-dioxo[1,2,4]oxadiazolidin-2-yl)propionic acid] |  | 6.38 | 
3 | N[C@H](C(=O)O)[C@H]1C[C@H]1C(=O)O [L-CCG-IV] |  | < 5.00 | 5.46
